Experimental data: patent publication US20090197957A1, “Methods and compositions for the treatment of pain” (Nuon Therapeutics, Inc., priority 2005, published 2009)
“And” between values parts separate entries of the source, which are not always exact repeats. Equal entries are not always repeated. “Also recorded” adds a separate entry of the source.

Assays:
[1] = tested on: acetic acid-induced writhing; assay: Analgesia, acetic acid writhing in mice (Assay #503900, Example 1); assay type: in vivo, mouse; settings: for No. of Writhing Average: group of 5 mice; for % Inhibition: relative to vehicle control; for No. of Writhing Individual: single mice
Procedure: Tranilast was evaluated for possible analgesic activity in the mouse acetic acid-induced writhing model. Tranilast at 100, 200 and 400 mg/kg was administered orally (PO) 1 hour before intraperitoneal injection of acetic acid (0.5%, 20 ml/kg).
Tranilast, provided by Angiogen Pharmaceuticals Pty. Ltd., was dissolved in 1% NaHCO3 (heated to 70° C.) and administered orally at doses of 100, 200 and 400 mg/kg at 60 minutes before acetic acid injection. The dosing volume was 10 ml/kg.
Male CD-1 (Crl.) derived mice weighing 24±2 g were provided by BioLasco Taiwan (under a Charles River Laboratories Technology licensee). Space allocation for 10 animals was 29×18×13 cm. Mice were housed in APEC^R cages. All animals were maintained in a controlled temperature (22° C.-24° C.) and humidity (60%-70%) environment with 12 hours light dark cycles for at least one week in MDS Pharma Services—Taiwan Laboratory prior to use. Free access to standard lab chow for mice (Lab Diet, Rodent Diet, PMI Nutrition International, USA) and tap water was granted. All aspects of this work including housing, experimentation and disposal of animals were performed in general accordance with the Guide for the Care and Use of Laboratory Animals (National Academy Press, Washington, D.C., 1996).
Test substance was administered PO (400, 200 and 100 mg/kg) to groups of 5 CD-1 (Crl.) derived male or female mice weighing 22±2 g one hour before injection of acetic acid (0.5%, 20 ml/kg IP). Reduction in the number of writhes by 50 percent or more (≧50%) per group of animals observed during the 5 to 10 minute period after acetic acid administration, relative to the vehicle-treated control group, indicates possible analgesic activity.
Test substance was administered orally to groups of 5 mice 60 minutes before injection of Acetic Acid (0.5%, 20 ml/kg IP). The number of writhing per group of animals observed during the 5 to 10 minutes period after acetic acid challenge was observed. Reduction in the number of writhings by 50 percent or more (≧50%) relative to the vehicle-treated control group indicates possible analgesic activity.

[2] = tested on: collagen-induced arthritis (CIA); assay: Development of collagen-induced arthritis (treatment from day of immunisation); assay type: in vivo, DBA/1 mice; settings: 200 mg/kg/day from the day of immunisation
Procedure: Type II collagen was purified from bovine cartilage, as described [Williams 2004, Methods Mol. Med. 98:207-216] and solubilized by stirring overnight at 4° C. in acetic acid (0.1M) or Tris buffer (0.05 M Tris, containing 0.2 M NaCl, pH 7.4). 3,4-DAA was synthesised by Angiogen Pharmaceuticals Pty. Ltd. For in vivo studies 3,4-DAA was dissolved at a maximum concentration of 10 mg/ml in 1% sodium bicarbonate by heating for 1 h at 70° C. Upon cooling, an emulsion was formed. For in vitro studies 3,4-DAA was dissolved in dimethyl sulphoxide (DMSO). 3-Hydroxy-anthranilic acid (3-HAA) was purchased from Sigma (Poole, UK) and dissolved in PBS.
Male DBA/1 mice (8-12 weeks old) were immunized intradermally at the base of the tail with bovine type II collagen (200 μg) emulsified in complete Freund's adjuvant (CFA; Difco, West Molesley, UK). Arthritis was monitored clinically using the following scoring system: 0=normal, 1=slight swelling and/or erythema, and 2=pronounced oedematous swelling. Each limb was graded, giving a maximum score of 8 per mouse. In addition, paw-swelling was measured using callipers.
In order to assess its anti-arthritic potential, 3,4-DAA was injected into DBA/1 mice (200 mg/kg/day) from the day of immunisation with type II collagen in CFA. […]

[3] = tested on: anti-type II collagen IgG1 and IgG2a; assay: Serum anti-collagen antibody levels (ELISA); assay type: in vivo, DBA/1 mice
Procedure: ELISA plates (Nunc, Uxbridge, UK) were coated with 2 μg/ml of bovine CII dissolved overnight in Tris Buffer (0.05 M Tris, containing 0.2 M NaCl, pH 7.4) blocked with 2% bovine serum albumin (BSA) and then incubated with serial dilutions of test sera. A reference sample was included on each plate. Bound total IgG, IgG1 or IgG2a was detected by incubation with HRP-conjugated sheep anti-mouse IgG, IgG1 or IgG2a, followed by TMB substrate. Optical density was measured at 450 nm.

[4] = tested on: IL-10; assay: Serum IL-10 in mice with established CIA (ELISA); assay type: in vivo; settings: treated for 10 days, 100, 200 or 400 mg/kg/day, listed as 3,4-DAA
Procedure: FIG. 3 is a graphical representation depicting that treatment with 3,4-DAA leads to increased IL-10 levels in vivo. Mice with established CIA were treated with 3,4-DAA or vehicle (n=7) for 10 days (see FIG. 2), then bled. IL-10 in the sera was measured by ELISA.

[5] = tested on: astrocytes in the spinal cord (GFAP); assay: GFAP immunohistochemistry of lumbar spinal cord (astrocytic activation); assay type: in vivo, mice; settings: 10 days following onset of arthritis; 3,4-DAA 200 mg/kg/day, dexamethasone 0.5 mg/kg/2 days
Procedure: FIG. 6 is an image depicting that 3,4-DAA inhibits mechanical and thermal allodynia, and inhibits astrocytic activation in arthritic mice. Mechanical (a) and thermal (b) allodynia, and paw swelling (c) and clinical score (d) were assessed in naïve mice on the day of arthritis onset, and up to 10 days following therapy with 200 mg/kg 3,4-DAA, […] dexamethasone, or vehicle. […] Whilst 3,4-DAA therapy reduced astrocytic activation (bottom right panel) dexamethasone had no action on GFAP levels (bottom left panel). Quantification of the number of hyper-plastic astrocytes in the spinal cord 10 days following onset of arthritis was performed (f).
Upon completion of treatment, animals were sacrificed by CO2 exposure, and the lumbar spinal cord was excised, fixed (10% formalin), and embedded in paraffin. Immunohistochemistry was then performed to detect astrocytes with a rabbit-anti GFAP (glial fibrillary acidic protein) antibody (Dako Cytomation, Glostrup, Denmark). Antibody detection was performed using an ABC peroxidase method (Vector Laboratories, High Wycombe, Bucks., U.K.) (32).
Astrocytic activation has been proposed to be important for the generation of both inflammatory and neuropathic hypersensitivity [Bao et al., 2001, Neuroreport 12:3905-3908; Watkins et al., 2001, Trends Neurosci. 24:450-455]. Astrocytic activation in the spinal cord in CIA was therefore assessed. […]

[6] = 100 mg/kg PO, 60 minutes before acetic acid
[7] = 200 mg/kg PO, 60 minutes before acetic acid
[8] = 400 mg/kg PO, 60 minutes before acetic acid

COc1ccc(/C=C/C(=O)Nc2ccccc2C(=O)O)cc1OC [Tranilast, 2-[[3-(3,4-dimethoxyphenyl)-1-oxo-2-propenyl]amino]benzoic acid]
No. of Writhing Average [1, 6]: 15
% Inhibition [1, 6]: 12%
No. of Writhing Individual [1, 6]: 19 and 15 and 16 and 17 and 9
No. of Writhing Average [1, 7]: 13
% Inhibition [1, 7]: 24%
No. of Writhing Individual [1, 7]: 10 (2×) and 19 and 9 and 16
No. of Writhing Individual ([1]; 400 mg/kg PO, 60 minutes before acetic acid (0.5%, 20 ml/kg IP), 5 to 10 minute period): 3 and 16 and 2 and 10 and 14
No. of Writhing Average [1, 8]: 9
% Inhibition [1, 8]: 47%
inhibition of acetic acid-induced writhing across doses ([1]; 100, 200 and 400 mg/kg PO): dose-dependent inhibition
clinical score of arthritis by day 28 [2]: 1
mice that had developed arthritis by day 28 ([2]; 7 mice): 14%
anti-collagen IgG1 or IgG2a levels in sera ([3]; 200 mg/kg/day from the day of immunisation): no change
anti-type II collagen IgG1 and IgG2a levels in sera ([3]; established CIA, 100, 200 or 400 mg/kg/day over 10 days): no differences
circulating IL-10 levels (sera) [4]: dose-dependent increase; also recorded: increased
number of activated astrocytes in the spinal cord (GFAP staining) [5]: significantly reduced
